Where no end group is shown, it is not given here.
Columns and labels:
[1] = tested on: experimental wounds of streptozotocin-induced diabetic rats; experiment: Wound healing in experimental wounds of streptozotocin-induced diabetic rats; assay type: in vivo, rat; details: 6-week streptozotocin-induced diabetic rats treated with 20 mg/kg, compared with normal untreated rats; FIGS. 5, 6A-6B
Experimental: The blood glucose levels of streptozotocin-induced diabetic rats was maintained at between 300-350 mg/dL with subcutaneous injection of insulin. Experimental wounds, having a diameter of […] and including the panniculus carnosus muscle, were made on the backs of diabetic rats. Wounds were serially photographed with a digital camera at the time of wounding, and then again every three days after wound induction until the time of closure, and the area of the wound measured (and expressed as cm^2). Wound closure was defined as complete epithelialization. The degree of wound contraction is calculated as: {(size of wound at day 0−size of wound at day X)/size of wound at day 0)}×100. Diabetic rats were administered 20 mg/kg of the aldose reductase inhibitor 3(4,5,7-triflurobenzothiazol-2-yl)methyl-indole-N-acetic acid at either the time of diabetes induction (simulating treatment prior to diabetic complications) or 6 weeks after diabetes induction (simulating treatment at the time of diabetic complications).

[2] = tested on: full-thickness skin wounds of db/db mice; details: three doses on days 0, 1 and 2 under Tegederm wound dressing, dose of 10-1000 nM; cited from earlier work

| Molecule | wound healing rate (wound size and wound contraction) [1] | time of healing [2] |
| --- | --- | --- |
| O=C(O)Cn1cc(Cc2nc3c(F)c(F)cc(F)c3s2)c2ccccc21 [3-(4,5,7-triflurobenzothiazol-2-yl)methyl-indole-N-acetic acid] | healed at the same rate as the wounds in normal rats |  |
| Substance P (RPKPQQFFGLM-NH2; ends and bridges not checked; UniProt P20366 58-68, looked up) [SP] |  | improved time of healing |
